Data from US11679168B2, “Caspase-3-triggered molecular self-assembling PET probes and uses thereof” (The Board of Trustees of the Leland Stanford Junior …, priority 2018, dated 2023).
Square brackets hold non-standard residues; d marks the D form. Peptide text beside a SMILES is read from it. * marks the point of attachment. NH(CH2)3O(2-CNpyrimidin5yl) = N#Cc1ncc(OCCCN*)cn1; 4Amb = NCc1ccc(C(=O)O)cc1; Pra = C#CC[CH](N)C(=O)O; Cbz = O=C(OCc1ccccc1)*; CH2F = FC*; SEt = CCS*

Key:
[1] = tested on: caspase-3 activity in H460 cells; assay: Confocal imaging of cisplatin-treated H460 cells with C-SNAF4-Cy5; type: cell-based, human; details: 50 μM
Protocol: Confocal Microscopy Imaging of Cisplatin-treated H460 Cells With C-SNAF4-Cy5: NCI-H460 cells at 70% confluency were either left naïve or treated with cisplatin (10 μM) for 24 hours. After removal of the medium, cells were incubated with 2 μM C-SNAF4-Cy5 at 37° C. for 24 hours. For the inhibition study, cells were first incubated with pan-caspase inhibitor Z-VAD-fmk (50 μM, 30 min) before incubation with C-SNAF4-Cy5.

[2] = Condensation kinetics of aminothiols with CBT (HPLC assay); type: physicochemical; details: substituted cysteine analogues with CBT, FIG. 50B
Protocol: General Methods for Measuring Kinetics of Condensation Reactions Between Aromatic Nitriles and Aminothiols: The 2nd order rate constants for condensation reactions between aromatic nitriles and aminothiols were measured by using HPLC assays. To solutions of aromatic nitriles (100 μM) in phosphate buffered saline (PBS) (1×, pH=7.4) were added aminothiol (1.0 equiv.), TCEP (2.0 equiv.) and NaHCO3 (3 equiv.). The reaction solutions were kept at room temperature (23° C.) and monitored by HPLC at different time points. The conversion rates were calculated using the peak integrals of aromatic nitriles and the condensation products at 254 nm. Based on 2nd order reaction law, 1/[aromatic nitrile] was plotted against time and the slope of the linear regression result gives the 2nd order rate constant.

[3] = L-cysteine with CBT; reported in Reference 13; cited from earlier work
recombinant human MetAP2 = recombinant human MetAP2 (Homo sapiens, UniProt P50579); assay: Macrocyclization and nanoaggregation of M-SNAT with recombinant MetAP2
[4] = tested on: MetAP2 activity in 22Rv1 cells; assay: Imaging MetAP2 activity in 22Rv1 cells (post click Cy5 labeling); type: cell-based, human; details: MetAP2 knockdown 22Rv1 cells, 24 h
[5] = tested on: MetAP2 activity in PC3 cells; assay: Imaging MetAP2 activity in PC3 cells (post click Cy5 labeling); type: cell-based, human; details: 24 h
Protocol: FIG. 45B illustrates fluorescence microscopy imaging of cy5 post-labeled M-SNAT (20 μM) with or without TNP470 and M-SNAT-ctrl (20 μM) in PC3 cells. Permealized cells were also stained with DAPI (blue).
Imaging MetAP2 activity in cancer cells: Cell uptake and MetAP2 specific activation of M-SNAT and M-SNAT-ctrl were evaluated in PC3 and DU145 cells with the MetAP2-specific inhibitor TNP-470. Post click fluorescent labeling was performed as illustrated in FIG. 45A to locate the nanoaggregation in cells and avoid the possible interference with probe uptake by pre-conjugating a large Cy5 fluorophore.

[6] = tested on: MetAP2 activity in DU145 cells; assay: Imaging MetAP2 activity in DU145 cells (post click Cy5 labeling); type: cell-based, human
Protocol: Imaging MetAP2 activity in cancer cells: […] Post click fluorescent labeling was performed as illustrated in FIG. 45A to locate the nanoaggregation in cells and avoid the possible interference with probe uptake by pre-conjugating a large Cy5 fluorophore.

H1299 tumor = assay: Caliper measurement of H1299 tumor volumes; type: in vivo, mice; details: H1299, high dose (9 mg/kg every other day x3, i.v.), day 21 after implantation
Protocol: (§1) FIG. 5B illustrates caliper measurement of H460 and H1299 tumor volumes in saline and drug-treated mice. Measurements are time after cell implantation, with high dose of cisplatin-treated (Intravenous injection, 9 mg/kg every other day for three times) in H460 and in H1299 tumor-bearing mice as arrow indicated (arrow). n=5 for each group.
(§2) Animal model and probe administration: For subcutaneous tumor models, H460 or H1299 (2×10^6 cells in 100 μl of PBS) were injection subcutaneously on the back of female nu/nu nude mice (aged 6 to 8 weeks; Charles River Laboratories). Tumor dimensions were measured periodically using a caliper (by the same researcher), with tumor volumes calculated by the following equation: volume=a×b×c/2, where a, b, and c represent three orthogonal axis of the tumor. Treatment-response analysis was performed 24 h after drug treatment. For all other experiments, animals were culled 26 h after therapy and tissues excised for analysis. For chemotherapy mouse model, tumors were grown to about 150 mm^3, and then treatment that consisted of cisplatin (Sigma-Aldrich; Low dose: 3 mg/kg; high dose: 9 mg/kg) or saline was initiated through intravenous administration, every other day for three times. Total mouse body weight and tumor size were measured every other day. Treat or left untreated. […]

H460 cells = assay: MTS cell viability assay in H460 cells; type: cell-based, human
Protocol: (§3) FIG. 13 illustrates cellular toxicity analysis in H460 and H1299 cells. Cells were incubated at different concentration of [^19F]-C-SNAT4 over 24 hours. The viability of cells was measured using an MTS assay.
FIG. 14 illustrates a Cisplatin dose response curves were assessed in H460 cells by MTS assay. The curves generated by GraphPad Prism software.
FIG. 36A illustrates the toxicity of C-SNAF4-Cy5 in heathy and apoptotic NCI-H460 measured with MTS assay (37° C., 24 h) in heathy H460 cells.
FIG. 36B illustrates the toxicity of C-SNAF4-Cy5 in H460 cells treated with cisplatin (1 μM, 24 hours) followed by incubation with C-SNAF4-Cy5 (37° C., 24 h).
Cell study: All cell lines were assessed to be pathogen-free prior to use in this study. […] Cell viability was assessed with CellTiter 96.RM AQueous One Solution Cell Proliferation Assay (MTS) kit from Promega (Madison, Wis., USA). […] After 60 min of incubation at 37° C., the absorbance was read at 490 nm with a 96 well plate reader from BMG LABTECH GmbH (Ortenberg, Germany).

H460 tumor = assay: Caliper measurement of H460 tumor volumes; type: in vivo, mice; details: H460, high dose (9 mg/kg every other day x3, i.v.), day 13 after implantation
Protocol: as §1, §2

H1299 cells = assay: MTS cell viability assay in H1299 cells; type: cell-based, human; details: H1299, up to 100 μM, 24 hours
Protocol: as §3
Cell study: All cell lines were assessed to be pathogen-free prior to use in this study. Human H460 and H1299 lung adenocarcinoma cells non-small cell lung cancer H460 (ATCC) and H1299 (ATCC) were cultured in Dulbecco's modified Eagle's medium (DMEM) (Invitrogen), supplement with 10% v/v fetal bovine serum (Life Technologies Inc.) and 1% v/v penicillin-streptomycin (100 IU/ml, […]; Life Technologies Inc.) at 37° C. in a humidified atmosphere maintained at 5% CO2. X-radiation was performed with an X-ray generator (0.2 mm Cu and 1 mm Al filter, 150 kV, Hitachi). The irradiation was carried out at room temperature at a dose rate of 0.2 Gy/min. Cell viability was assessed with CellTiter 96.RM AQueous One Solution Cell Proliferation Assay (MTS) kit from Promega (Madison, Wis., USA). Briefly, 100 μl aliquots of the treated or untreated cell suspension were seeded into 96-well polystyrene tissue culture plates and 20 μl of assay reagent was added to each well. After 60 min of incubation at 37° C., the absorbance was read at 490 nm with a 96 well plate reader from BMG LABTECH GmbH (Ortenberg, Germany).

caspase-3 = target: T1, caspase-3 (Homo sapiens, UniProt P42574); assay: Nanoaggregation of [19F]-C-SNAT4 after caspase-3 activation (DLS, TEM); type: biochemical
T1 construct: before and after addition of active caspase-3 (Casp3) enzyme; purchased Sigma; host or cells: E. coli
T1 sequence (P42574 29-175 limits assumed): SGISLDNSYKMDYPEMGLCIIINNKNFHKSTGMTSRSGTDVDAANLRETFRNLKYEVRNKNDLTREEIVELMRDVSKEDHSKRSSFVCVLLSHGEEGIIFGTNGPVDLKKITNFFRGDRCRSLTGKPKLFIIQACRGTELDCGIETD
T1 sequence (P42574 176-277 limits assumed): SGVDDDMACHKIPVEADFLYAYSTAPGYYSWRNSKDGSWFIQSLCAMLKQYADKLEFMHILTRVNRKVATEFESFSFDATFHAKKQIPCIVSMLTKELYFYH
Protocol: FIG. 1C illustrates the TEM images of [^19F]-C-SNAT4 before and after addition of active caspase-3 (Casp3) enzyme. [^19F]-C-SNAT4 (20 μM) was incubated with caspase-3 (2×10^−3U mL^−1, human, recombinant from E. coli, Sigma) in caspase buffer at 37° C. overnight.
FIG. 12 illustrates in vitro validation and nanoaggregation characterization of [^19F]-C-SNAT4. [^19F]-C-SNAT4 and formation of cycl-[^19F]-SNAT4 after [^19F]-C-SNAT4 incubated with caspase-3 were analyzed by (A) HPLC, (B) DLS of [^19F]-C-SNAT4 without and with caspase-3 incubation. [^19F]-C-SNAT4 (20 μM) was incubated with caspase-3 (2×10^−3U mL^−1, human, recombinant from E. coli, Sigma) in caspase buffer (50 mM HEPES, 100 mM NaCl, 1 mM EDTA, 10 mM TCEP, 10% glycerol and 0.1% CHAPS at pH 7.4) at 37° C. overnight.

recombinant human MetAP2, sequence (P50579 whole entry): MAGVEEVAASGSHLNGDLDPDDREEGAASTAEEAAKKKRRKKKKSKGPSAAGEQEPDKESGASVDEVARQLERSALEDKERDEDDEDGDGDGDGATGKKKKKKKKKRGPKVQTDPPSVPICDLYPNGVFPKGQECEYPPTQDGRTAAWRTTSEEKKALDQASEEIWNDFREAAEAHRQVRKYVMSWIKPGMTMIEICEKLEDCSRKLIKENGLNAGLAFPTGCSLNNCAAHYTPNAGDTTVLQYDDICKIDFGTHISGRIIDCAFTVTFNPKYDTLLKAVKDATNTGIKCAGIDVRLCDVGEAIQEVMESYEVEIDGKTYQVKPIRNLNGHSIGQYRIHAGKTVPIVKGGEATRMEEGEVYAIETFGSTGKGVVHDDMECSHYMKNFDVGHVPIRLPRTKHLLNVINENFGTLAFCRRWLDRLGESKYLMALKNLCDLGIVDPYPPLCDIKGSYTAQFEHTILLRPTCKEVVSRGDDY

COC(=O)C[C@H](NC(=O)[C@H](C)NC(=O)[C@@H](NC(=O)OCc1ccccc1)C(C)C)C(=O)CF [Z-VAD-fmk] (Cbz-Val-Ala-Asp(OMe)-CH2F)
effect on C-SNAF4-Cy5 fluorescence [1]: Fluorescence abolishment

N[C@@H](CS)C(=O)O [L-cysteine]
second-order reaction rate [2]: 3.2 M⁻¹ s⁻¹
2nd order rate constant k [3]: 2.9 M⁻¹ s⁻¹

C#CCC(NC(=O)CNC(=O)C(CSSCC)NC(=O)C(N)CCSC)C(=O)NCc1ccc(C(=O)NCCCOc2cnc(C#N)nc2)cc1 (stereo not shown) [M-SNAT] (H-MC(SEt)G[Pra][4Amb]-{NH(CH2)3O(2-CNpyrimidin5yl)}; configuration not given here)
average diameter of nanoparticles (DLS, TEM) (recombinant human MetAP2; 10 μM, MetAP2 7.5 μg/ml, 24 h): 861 nm
diameter range of nanoparticles (recombinant human MetAP2; 10 μM, MetAP2 7.5 μg/ml, 24 h): 531-1281 nm
macrocyclization (HPLC, mass spectrometry) (recombinant human MetAP2; 10 μM, MetAP2 7.5 μg/ml, TCEP, 24 h): converted into M-SNAT-cyclized
average diameter of nanoparticles (DLS) (recombinant human MetAP2; FIG. 44B): 861 nM
diameter range of nanoparticles (DLS) (recombinant human MetAP2; FIG. 44B): 531 to 1281 nM
Cy5 post-labeled fluorescence in cells [4]: much weaker red fluorescence
Cy5 post-labeled fluorescence in cells ([5]; MetAP2 knockdown PC3 cells): much weaker red fluorescence
Cy5 post-labeled fluorescence in cells ([5]; PC3, 20 μM): red fluorescence was observed
accumulation in cells ([6]; DU145): dose-dependent manner
Cy5 post-labeled fluorescence in cells ([6]; DU145, 20 μM, 24 h): red fluorescence was observed

N.N.[Cl][Pt][Cl] [cisplatin]
tumor volume (H1299 tumor): 1348.5±356.0 mm^3
IC50 (H460 cells; H460, MTS assay, read-out: half-maximal inhibitory concentration (IC50)): 9.51 µM
tumor volume (H460 tumor): 690.8±88.6 mm^3

CCSSCC(NC(=O)C(CC(=O)O)NC(=O)C(NC(=O)C(CCC(=O)O)NC(=O)C(CC(=O)O)NC(C)=O)C(C)C)C(=O)NCC(=O)NC(Cc1cn(CCOCCOCCOCCF)nn1)C(=O)NCc1ccc(C(=O)NCCCOc2cnc(C#N)nc2)cc1 (stereo not shown) [[^19F]-C-SNAT4]
cytotoxicity (H1299 cells): no toxicity
average size of nanoparticles (DLS) (caspase-3): around 200 nm
cytotoxicity (H460 cells; H460, up to 100 μM, 24 hours): no toxicity
